From ChEMBL document CHEMBL1240307, “A functional genomics approach to the mode of action of apratoxin A” (Nat Chem Biol, 2006)

Legend:
[1] = system: A549; assay: Cytotoxicity against human A549 cells by sulforhodamine B assay; type: functional
[2] = system: HT-29; assay: Antitumor activity against human HT-29 cells assessed as down-regulation of CDC25A mRNA expression at 10 nM after 3 hrs relative to control; type: functional
[3] = system: HT-29; assay: Antitumor activity against human HT-29 cells assessed as down-regulation of RAB11B mRNA expression at 2 nM after 3 hrs relative to control; type: functional
[4] = system: HT-29; assay: Antitumor activity against human HT-29 cells assessed as upregulation of HSPA1A mRNA expression at 10 nM after 3 hrs relative to control; type: functional
[5] = system: HT-29; assay: Antitumor activity against human HT-29 cells assessed as down-regulation of CDC25A mRNA expression at 10 nM after 6 hrs relative to control; type: functional
[6] = system: SK-OV-3; assay: Cytotoxicity against human SKOV3 cells by sulforhodamine B assay; type: functional
[7] = system: SF-539; assay: Cytotoxicity against human SF539 cells by sulforhodamine B assay; type: functional
[8] = system: HT-29; assay: Antitumor activity against human HT-29 cells assessed as upregulation of HSPA1A mRNA expression at 2 nM after 12 hrs relative to control; type: functional
[9] = system: HT-29; assay: Antitumor activity against human HT-29 cells assessed as upregulation of MGC4504 mRNA expression at 10 nM after 3 hrs relative to control; type: functional
[10] = system: OVCAR-4; assay: Cytotoxicity against human OVCAR4 cells by sulforhodamine B assay; type: functional
[11] = system: U2OS; assay: Cell cycle arrest in human U2OS cells overexpressing mouse Fgfr1 assessed as accumulation at S phase at 15 nM after 48 hrs by CMV-GFP reporter assay method (reference value: 33%); type: functional
[12] = system: IGROV-1; assay: Cytotoxicity against human IGROV1 cells by sulforhodamine B assay; type: functional
[13] = system: HT-29; assay: Antitumor activity against human HT-29 cells assessed as upregulation of RASSF4 mRNA expression at 10 nM after 12 hrs relative to control; type: functional
[14] = system: HT-29; assay: Antitumor activity against human HT-29 cells assessed as down-regulation of CCNE2 mRNA expression at 10 nM after 3 hrs relative to control; type: functional
[15] = system: HT-29; assay: Antitumor activity against human HT-29 cells assessed as upregulation of RASSF4 mRNA expression at 2 nM after 3 hrs relative to control; type: functional
[16] = system: HT-29; assay: Antitumor activity against human HT-29 cells assessed as down-regulation of CCNE2 mRNA expression at 2 nM after 3 hrs relative to control; type: functional
[17] = system: HT-29; assay: Antitumor activity against human HT-29 cells assessed as down-regulation of GTSE1 mRNA expression at 2 nM after 3 hrs relative to control; type: functional
[18] = system: U2OS; assay: Cell cycle arrest in human U2OS cells assessed as accumulation at G1 phase at 5 nM after 48 hrs by FACS analysis (reference value: 49.8%); type: functional
[19] = system: EKVX; assay: Cytotoxicity against human EKVX cells by sulforhodamine B assay; type: functional
[20] = Cytotoxicity against activated human CD4+ T cells assessed as cell viability after 5 days by fluorescence detection method; type: cell-based; conditions: 120 h
[21] = system: UACC-62; assay: Cytotoxicity against human UACC62 cells by sulforhodamine B assay; type: functional
[22] = system: HT-29; assay: Antitumor activity against human HT-29 cells assessed as down-regulation of TAL1 mRNA expression at 10 nM after 3 hrs relative to control; type: functional
[23] = system: U2OS; assay: Antiproliferative activity against human U2OS cells expressing constitutively active Stat3 mutant after 48 hrs by CMV-GFP reporter assay method; type: functional, cell-based
[24] = system: HT-29; assay: Cytotoxicity against human HT-29 cells by sulforhodamine B assay; type: functional
[25] = system: M14; assay: Cytotoxicity against human M14 cells by sulforhodamine B assay; type: functional
[26] = system: HT-29; assay: Antitumor activity against human HT-29 cells assessed as upregulation of DDIT4 mRNA expression at 2 nM after 3 hrs relative to control; type: functional
[27] = system: DU-145; assay: Cytotoxicity against human DU145 cells by sulforhodamine B assay; type: functional
[28] = system: SF-268; assay: Cytotoxicity against human SF268 cells by sulforhodamine B assay; type: functional
[29] = system: NCI-H460; assay: Cytotoxicity against human NCI-H460 cells by sulforhodamine B assay; type: functional
[30] = system: HT-29; assay: Antitumor activity against human HT-29 cells assessed as down-regulation of TAL1 mRNA expression at 2 nM after 3 hrs relative to control; type: functional
[31] = system: SK-MEL-5; assay: Cytotoxicity against human SK-MEL-5 cells by sulforhodamine B assay; type: functional
[32] = system: HT-29; assay: Antitumor activity against human HT-29 cells assessed as upregulation of MGC4504 mRNA expression at 10 nM after 6 hrs relative to control; type: functional
[33] = system: SF-295; assay: Cytotoxicity against human SF295 cells by sulforhodamine B assay; type: functional
[34] = system: SK-MEL-28; assay: Cytotoxicity against human SK-MEL-28 cells by sulforhodamine B assay; type: functional
[35] = system: U2OS; assay: Cell cycle arrest in human U2OS cells assessed as accumulation at S phase at 50 nM after 24 hrs by FACS analysis (reference value: 37.3%); type: functional
[36] = system: U-251; assay: Cytotoxicity against human U251 cells by sulforhodamine B assay; type: functional
[37] = system: HT-29; assay: Antitumor activity against human HT-29 cells assessed as upregulation of DDIT4 mRNA expression at 10 nM after 3 hrs relative to control; type: functional
[38] = system: HT-29; assay: Antitumor activity against human HT-29 cells assessed as down-regulation of RAB11B mRNA expression at 10 nM after 6 hrs relative to control; type: functional
[39] = system: HT-29; assay: Antitumor activity against human HT-29 cells assessed as down-regulation of TAL1 mRNA expression at 10 nM after 6 hrs relative to control; type: functional
[40] = system: SN12C; assay: Cytotoxicity against human SN12C cells by sulforhodamine B assay; type: functional
[41] = system: HT-29; assay: Antitumor activity against human HT-29 cells assessed as down-regulation of CCNE2 mRNA expression at 2 nM after 6 hrs relative to control; type: functional
[42] = system: 786-0; assay: Cytotoxicity against human 786-0 cells by sulforhodamine B assay; type: functional
[43] = system: HT-29; assay: Antitumor activity against human HT-29 cells assessed as down-regulation of CDC25A mRNA expression at 2 nM after 6 hrs relative to control; type: functional
[44] = system: OVCAR-3; assay: Cytotoxicity against human OVCAR-3 cells by sulforhodamine B assay; type: functional
[45] = system: HT-29; assay: Antitumor activity against human HT-29 cells assessed as down-regulation of TAL1 mRNA expression at 2 nM after 12 hrs relative to control; type: functional
[46] = system: HT-29; assay: Antitumor activity against human HT-29 cells assessed as upregulation of KCNK10 mRNA expression at 10 nM after 12 hrs relative to control; type: functional
[47] = system: HT-29; assay: Antitumor activity against human HT-29 cells assessed as down-regulation of GTSE1 mRNA expression at 10 nM after 3 hrs relative to control; type: functional
[48] = system: HT-29; assay: Antitumor activity against human HT-29 cells assessed as down-regulation of CDC25A mRNA expression at 2 nM after 12 hrs relative to control; type: functional
[49] = system: HT-29; assay: Antitumor activity against human HT-29 cells assessed as upregulation of HSPA1A mRNA expression at 10 nM after 12 hrs relative to control; type: functional
[50] = read-out: LC50 (the source's name)

CC[C@H](C)[C@H]1C(=O)N2CCC[C@H]2C(=O)O[C@H](C(C)(C)C)C[C@@H](C)C[C@H](O)[C@H](C)C2=N[C@@H](/C=C(\C)C(=O)N[C@@H](Cc3ccc(OC)cc3)C(=O)N(C)[C@@H](C)C(=O)N1C)CS2 [APRATOXIN A]
GI50 [1]: 5.38 nM | fold change (FC) [2]: <=2 | fold change (FC) [3]: -3.68 | fold change (FC) [4]: 2.21 | fold change (FC) [5]: <=2 | GI50 [6]: 5.27 nM | GI50 [7]: 0.503 nM | CC50 [7, 50]: 69.4 nM | fold change (FC) [8]: <=2 | fold change (FC) [9]: <=2 | GI50 [10]: > 100 nM | inhibition at 0.015 µM [11]: 28% | GI50 [12]: 0.742 nM | fold change (FC) [13]: <=2 | fold change (FC) [14]: <=2 | fold change (FC) [15]: 12.65 | fold change (FC) [16]: <=2 | fold change (FC) [17]: <=2 | inhibition at 0.005 µM [18]: 82.1% | GI50 [19]: 7.56 nM | IC50 [20]: 60 nM | GI50 [21]: 3.28 nM | fold change (FC) [22]: <=2 | IC50 [23]: 50 nM | GI50 [24]: 1.04 nM | CC50 [24, 50]: 75.2 nM | GI50 [25]: 2.09 nM | fold change (FC) [26]: 2.49 | GI50 [27]: 10.3 nM | GI50 [28]: 50.8 nM | GI50 [29]: 2.77 nM | fold change (FC) [30]: -2.52 | GI50 [31]: 2.31 nM | fold change (FC) [32]: 10.46 | GI50 [33]: 1.26 nM | CC50 [33, 50]: 70.3 nM | GI50 [34]: 5.49 nM | inhibition at 0.05 µM [35]: 22.6% | GI50 [36]: 1.56 nM | fold change (FC) [37]: 4.09 | fold change (FC) [38]: <=2 | fold change (FC) [39]: <=2 | GI50 [40]: 3.94 nM | fold change (FC) [41]: <=2 | GI50 [42]: 4.52 nM | fold change (FC) [43]: <=2 | GI50 [44]: 16.9 nM | fold change (FC) [45]: <=2 | fold change (FC) [46]: <=2 | fold change (FC) [47]: <=2 | fold change (FC) [48]: -2.2 | fold change (FC) [49]: <=2
